{"source": "patent US10406150B2", "about": "“Method for treatment of primary hormone resistant endometrial and breast cancers” (Lipoxen Technologies Limited, priority 2014, dated 2019)", "tested_on": "secondary PR negative Ishikawa cells", "experiment": "Model of secondary PR-negative endometrial cancer (progestin-resistant Ishikawa xenograft)", "type": "in vivo, mice", "conditions": "day 7; MPA 250 mg/kg/day i.p. 5 days per week, SC 0.3 mg/kg i.m. each alternate day; mean ± SEM", "experimental": "When the surviving cells had grown to a high density but were still less than confluent, cells were subcloned using 0.02% EDTA and 0.25% trypsin prepared in Hanks' balanced salt solution. MPA-containing medium was replaced every 2-3 days. Cells proliferating in 10 μM MPA with the same doubling time as the initial Ishikawa cells proliferating in the medium without MPA, were considered as secondary progestin-resistant Ishikawa cells.\n2×10^6 secondary PR negative Ishikawa cells were inoculated into the flanks of MF-1 female nude mice in 100 μl Matrigel.\n1) Vehicle control group: vehicle only, −0.9% sodium chloride for injection i.m each alternate day and i.p. for 5 days per week.\n2) MPA only control group: medroxyprogesterone acetate (MPA) (250 mg/kg/day) i.p. for 5 days per week.\nTumors were measured with vernier calipers weekly. Tumor volumes (mm^3) were calculated using the modified ellipsoid formula: (length (mm)×width (mm)^2)/2. The ratio (percentage) of “Tumor volume at day n” to “tumor volume at day “0” was calculated for each animal. At the end of the experiments (day 35) animals were euthanized."}
{"smiles": "CC(=O)O[C@]1(C(C)=O)CC[C@H]2[C@@H]3C[C@H](C)C4=CC(=O)CC[C@]4(C)[C@H]3CC[C@@]21C", "note": "[MPA, medroxyprogesterone acetate]", "values": [{"measurement": "Tumor volume at day n/tumor volume at day “0”", "result": "170 ± 19", "unit": "%"}]}
